In patent US10646475B2, “SHMT inhibitors” (The Trustees of Princeton University, priority 2015, dated 2020):
“Also recorded” adds a separate entry of the source. Each block holds one compound with its values, some of them ahead of it.

How the values were obtained:
human MTHFD2 = molecular target: T1, human MTHFD2 (Homo sapiens, UniProt P13995); test: MTHFD2 in vitro assay (rate of NADH formation at 340 nm); format: biochemical; conditions: FIG. 3(c)
T1 sequence (P13995 36-350): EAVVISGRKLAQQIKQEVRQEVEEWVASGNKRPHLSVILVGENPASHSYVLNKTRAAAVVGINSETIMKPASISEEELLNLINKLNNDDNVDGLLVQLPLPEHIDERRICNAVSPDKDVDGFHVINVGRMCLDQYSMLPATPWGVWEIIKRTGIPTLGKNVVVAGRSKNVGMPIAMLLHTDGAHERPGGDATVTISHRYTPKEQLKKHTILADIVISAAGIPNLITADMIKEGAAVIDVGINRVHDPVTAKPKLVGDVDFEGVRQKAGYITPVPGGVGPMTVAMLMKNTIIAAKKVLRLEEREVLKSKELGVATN
Excerpt: For the MTHFD2 in vitro assay (FIG. 3(c)), the rate of NADH formation was directly monitored at 340 nm.

human SHMT2 = molecular target: T2, human SHMT2 (Homo sapiens, UniProt P34897); test: SHMT2 in vitro coupled enzymatic assay (coupled with excess MTHFD2, NADH absorption at 340 nm); format: biochemical; conditions: for IC50: inhibition of initial reaction velocity
T2 sequence (P34897 30-504): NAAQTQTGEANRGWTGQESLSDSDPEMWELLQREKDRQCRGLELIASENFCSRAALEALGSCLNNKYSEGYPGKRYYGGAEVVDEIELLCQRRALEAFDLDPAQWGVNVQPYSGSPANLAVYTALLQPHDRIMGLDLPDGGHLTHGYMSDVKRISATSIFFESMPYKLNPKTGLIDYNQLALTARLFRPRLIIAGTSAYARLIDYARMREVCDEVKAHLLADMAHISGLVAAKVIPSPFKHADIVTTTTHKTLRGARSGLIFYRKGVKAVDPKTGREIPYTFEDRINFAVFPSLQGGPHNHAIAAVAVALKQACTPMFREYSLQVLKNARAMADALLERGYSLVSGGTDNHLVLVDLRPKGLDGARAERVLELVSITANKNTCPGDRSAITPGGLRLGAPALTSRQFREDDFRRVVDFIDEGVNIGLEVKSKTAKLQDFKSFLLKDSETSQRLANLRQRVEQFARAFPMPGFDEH

human SHMT1 = molecular target: T3, human SHMT1 (Homo sapiens, UniProt P34896); test: SHMT1 in vitro coupled enzymatic assay (coupled with excess MTHFD2, NADH absorption at 340 nm); format: biochemical; conditions: for IC50: inhibition of initial reaction velocity
T3 sequence (P34896 1-483): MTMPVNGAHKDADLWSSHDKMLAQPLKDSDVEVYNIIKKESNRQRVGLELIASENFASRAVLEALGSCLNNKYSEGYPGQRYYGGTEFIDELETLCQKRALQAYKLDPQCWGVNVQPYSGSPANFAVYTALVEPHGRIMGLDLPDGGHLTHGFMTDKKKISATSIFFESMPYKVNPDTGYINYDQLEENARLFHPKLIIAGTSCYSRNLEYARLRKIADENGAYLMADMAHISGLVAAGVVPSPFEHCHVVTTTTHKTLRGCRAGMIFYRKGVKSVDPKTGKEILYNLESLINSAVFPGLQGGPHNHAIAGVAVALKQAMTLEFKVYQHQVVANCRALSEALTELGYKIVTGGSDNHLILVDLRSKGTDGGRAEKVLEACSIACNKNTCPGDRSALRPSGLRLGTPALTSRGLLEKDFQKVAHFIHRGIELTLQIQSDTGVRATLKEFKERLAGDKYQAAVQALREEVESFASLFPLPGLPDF

[1] = tested on: human cells expressing SHMT2; test: Measurement of AICAR, marker for one-carbon unit stress, in cells; format: cell-based; conditions: treatment for 24 hours, increasing concentrations, FIG. 2(b)
Description: HEK-293T cells were cultured in 6-well plates in Dulbecco's modified eagle media (DMEM) without pyruvate with 10% dialysed fetal bovine serum in 5% CO2 at 37° C. […] Growth was quenched and metabolites extracted by aspirating media, washing cells with cold PBS, and immediately adding MeOH/water (80:20 at −80° C.). Supernatants from two rounds of extraction were combined, dried under N2, resuspended in water, placed in a 4° C. autosampler, and analyzed by reverse-phase ion-paring chromatography negative-mode electrospray-ionization high-resolution MS on a stand-alone orbitrap.
Generation of AICAR provides an assay to evaluate one-carbon unit stress. Inhibition of SHMT2 in cells decreases serine metabolism and leads to one-carbon stress. […] Such cells show high constitutive levels of 5-aminoimidazole-4-carboxamide ribonucleotide (AICAR), a marker for one-carbon unit stress, when cultured in media (left bar in FIG. 2(a)). This can be rescued by exogenous treatment with sodium formate (right bar in FIG. 2(a)).
(*) indicates AICAR was below the limit of detection.

[2] = tested on: SHMT serine metabolic activity in SHMT2 expressing human cells; test: Isotope labeling of serine metabolism in cells (labeled serine, LC-MS); format: cell-based; conditions: uniformly labeled serine, FIG. 2(c)
Description: Using 2,3,3-^2H3-serine (D3-serine) as a tracer, mitochondrial flux was measured by quantifying the labeling pattern of dTTP, a downstream product of dTMP. […] This assay was used to examine mitochondrial serine flux and the effect of compounds of the disclosure on mitochondrial serine flux, in either wildtype or mutant cells.
Uniformly labeled serine is metabolized into various isoptomers in WT cells by the forward and reverse enzymatic activity of SHMT.

HEK293T cells = test: Cell growth assay (resazurin), wild-type HEK293T; format: cell-based, human; conditions: for inhibition of cell growth: varying concentrations
Description: HEK293T cells were cultured in 96-well plates in Dulbecco's modified eagle media (DMEM) without pyruvate with 10% dialysed fetal bovine serum (Invitrogen) in 5% CO2 at 37° C. 24 hours after plating, cells were treated with various concentrations of inhibitor. Growth was serially assessed using the resazurin (‘AlamarBlue’) assay.
(§1) The described cell lines used in Examples 9-11 were cultured in 96-well plates in Dulbecco's modified eagle media (DMEM) without pyruvate (CELLGRO) with 10% dialysed fetal bovine serum (Invitrogen) in 5% CO2 at 37° C. Approximately 2,500 cells were plated in each well in 90 uL of media. After 24 hours cells were treated with various concentrations of inhibitor (time=0 hours), with or without formate. Growth was assessed at multiple time points (time=0, 24, 48, 72 hours) through measurement of fluorescence at 595 nm (excitation at 535 nm) on a BioTek micro titer plate reader after incubation with resazurin (0.01 mg/mL for 1.5 hours). IC50 curves were generated from percent inhibition of growth at 72 hours.

[3] = tested on: SHMT2 knock-out HEK293 cells; test: Cell growth assay (resazurin), SHMT2 knock-out 293T; format: cell-based, human; conditions: varying concentrations
Description: HEK293T cell lines mutant for SHMT1 and SHMT2 were created using the CRISPR-Cas9 system following standard published protocols. Single clones from successful transfections were grown up, genotyped and characterized.
(§2) Inhibitors of SHMT were evaluated in wildtype, SHMT2 knock-out, and MTHFD2 knock-out 293T cells (FIG. 6(a) and FIG. 6(b)).
as §1

[4] = tested on: MTHFD2 knock-out HEK293T cells; test: Cell growth assay (resazurin), MTHFD2 knock-out 293T; format: cell-based, human; conditions: varying concentrations
Description: as §2, §1

[5] = tested on: HCT116 human colon carcinoma cells; test: Cancer cell growth assay (resazurin), HCT116; format: cell-based; conditions: HCT116, varying concentrations, FIG. 7
Description: (§3) Inhibitors of SHMT were evaluated in various cancer cell lines. […] This cancer cell line comprises (harbors) a mutation in a component of the mitochondrial folate pathway. Specifically, one or more cells in this line comprise a mutation in the downstream mitochondrial folate enzyme, MTHFD1L.
as §1

[6] = tested on: 8988T pancreatic cancer cells; test: Cancer cell growth assay (resazurin), 8988T; format: cell-based, human; conditions: 8988T (MTHFD1L mutation), varying concentrations, FIG. 7
Description: as §3, §1

inhibition of human MTHFD2 in enzymatic assays (human MTHFD2): do not inhibit
Compound: COc1cccc(C2(C3CCC3)C(C#N)=C(N)Oc3[nH]nc(C)c32)c1 (racemic) [HK-2]

IC50 (human SHMT2; Table A): 159 nM
Compound: Cc1n[nH]c2c1C(c1cc(Cl)cc(Cl)c1)(C1CCC1)C(C#N)=C(N)O2 (racemic) [HK-10]

IC50 (human SHMT2; Table A): 131 nM
IC50 (human SHMT1; Table A): 67 nM
Compound: Cc1n[nH]c2c1C(c1cc(Cl)cc(Cl)c1)(C(C)C)C(C#N)=C(N)O2 (racemic) [HK-14]

IC50 (human SHMT2; Table A): 35 nM
IC50 (human SHMT1; Table A): 20 nM
inhibition of human MTHFD2 in enzymatic assays (human MTHFD2): do not inhibit
Compound: Cc1n[nH]c2c1C(c1cc(Cl)cc(C(F)(F)F)c1)(C(C)C)C(C#N)=C(N)O2 (racemic) [HK-15]

inhibition of human MTHFD2 in enzymatic assays (human MTHFD2): do not inhibit
Compound: Cc1n[nH]c2c1C(c1cc(C(F)(F)F)cc(C(F)(F)F)c1)(C(C)C)C(C#N)=C(N)O2 (racemic) [HK-16]
AICAR accumulation [1]: AICAR accumulation in a dose-dependent manner
SHMT serine metabolic activity in cells [2]: inhibited in cells by HK-16 in a dose-dependent manner

Compound: Cc1n[nH]c2c1C(c1cc(C(F)(F)F)cc(C(F)(F)F)c1)(C(C)C)C(C#N)=C(N)O2 (single isomer, unassigned) [HK-16 (PK-1)]
inhibition of cell growth (HEK293T cells; FIG. 5, 6): not inhibited
inhibition of cell growth (HEK293T cells; FIG. 5, 6, listed as HK-16-P1): significantly less or no effect
inhibition of cell growth (HEK293T cells; FIG. 5, 6, listed as Peak 1): not appreciably inhibited; also recorded: little or no activity
inhibition of cell growth ([3]; FIG. 6, listed as HK-16-P1): significantly less or no effect
inhibition of cell growth ([3]; FIG. 6, listed as Peak 1): Some, although a lower degree of activity
inhibition of cell growth ([4]; FIG. 6, listed as HK-16-P1): significantly less or no effect
inhibition of cell growth ([4]; FIG. 6, listed as Peak 1): Some, although a lower degree of activity
inhibition of cancer cell growth ([5]; listed as HK-16-P1): does not inhibit cell growth

IC50 (human SHMT2; Table A): 1190 nM
IC50 (human SHMT2; table of Example 6): 1190 nM
Compound: Cc1n[nH]c2c1C(c1cccc(Cl)c1)(C1CCC1)C(C#N)=C(N)O2 (stereo not shown) [HK-3]

IC50 (human SHMT2; Table A): 4580 nM
IC50 (human SHMT2; table of Example 6): 4580 nM
Compound: COc1cccc(C2(C(C)C)C(C#N)=C(N)Oc3[nH]nc(C)c32)c1 (stereo not shown) [HK-6]

IC50 (human SHMT2; Table A): 400 nM
IC50 (human SHMT2; table of Example 6): 400 nM
Compound: Cc1n[nH]c2c1C(c1cccc(Cl)c1)(C(C)C)C(C#N)=C(N)O2 (stereo not shown) [HK-7]

IC50 (human SHMT2; Table A): 3460 nM
IC50 (human SHMT2; table of Example 6): 3460 nM
Compound: COc1cc(Cl)cc(C2(C3CCC3)C(C#N)=C(N)Oc3[nH]nc(C)c32)c1 (stereo not shown) [HK-9]

IC50 (human SHMT2; Table A): 100 nM
IC50 (human SHMT2; table of Example 6): 100 nM
Compound: Cc1n[nH]c2c1C(c1cc(Cl)cc(C(F)(F)F)c1)(C1CCC1)C(C#N)=C(N)O2 (stereo not shown) [HK-11]

IC50 (human SHMT2; Table A): 168 nM
IC50 (human SHMT2; table of Example 6): 168 nM
IC50 (human SHMT1; Table A): 206 nM
IC50 (human SHMT1; table of Example 6): 206 nM
Compound: Cc1n[nH]c2c1C(c1cc(C(F)(F)F)cc(C(F)(F)F)c1)(C1CCC1)C(C#N)=C(N)O2 (stereo not shown) [HK-12]

IC50 (human SHMT2; Table A): 500 nM
IC50 (human SHMT2; table of Example 6): 500 nM
Compound: COc1cc(Cl)cc(C2(C(C)C)C(C#N)=C(N)Oc3[nH]nc(C)c32)c1 (stereo not shown) [HK-13]

activity against SHMT1 in an in vitro enzyme assay (human SHMT1; FIG. 4(b)): active
Compound: Cc1n[nH]c2c1C(c1cc(C(F)(F)F)cc(C(F)(F)F)c1)(C(C)C)C(C#N)=C(N)O2 (stereo not shown) [HK-16 (PK-2)]
anti-SHMT2 activity of resolved enantiomers of HK-16 (human SHMT2; FIG. 4(a)): confined to the enantiomer represented by “Peak 2”
rescue of growth inhibitory effects by formate (HEK293T cells; compound at 10 μM, co-culture with formate at 1 mM, FIG. 8): rescued
inhibition of cell growth (HEK293T cells; FIG. 5, 6, listed as HK-16-P2): active
inhibition of cell growth (HEK293T cells; FIG. 5, 6, listed as Peak 2): inhibited in a dose-dependent manner; also recorded: inhibited cell growth
inhibition of cell growth ([3]; FIG. 6, listed as HK-16-P2): active; also recorded: increased sensitivity to inhibition
inhibition of cell growth ([3]; FIG. 6, listed as Peak 2): inhibited cell growth
inhibition of cell growth ([4]; FIG. 6, listed as HK-16-P2): active; also recorded: increased sensitivity to inhibition
inhibition of cell growth ([4]; FIG. 6, listed as Peak 2): inhibited cell growth
inhibition of cancer cell growth ([6]; listed as HK-16 (peak 2)): more sensitive
inhibition of cancer cell growth ([6]; listed as HK-16-P2): significantly more sensitive; also recorded: inhibited growth
inhibition of cancer cell growth ([5]; listed as HK-16-P2): inhibits cancer cell growth; also recorded: inhibited growth

IC50 (human SHMT2; table of Example 6): > 5000 nM
IC50 (human SHMT1; table of Example 6): > 5000 nM
Compound: Cc1nn(C)c2c1C(c1cc(C(F)(F)F)cc(C(F)(F)F)c1)(C(C)C)C(C#N)=C(N)O2 (stereo not shown) [KDG-4]

IC50 (human SHMT2; table of Example 6): > 5000 nM
IC50 (human SHMT1; table of Example 6): > 5000 nM
Compound: Cc1nn(-c2ccccc2)c2c1C(c1cc(C(F)(F)F)cc(C(F)(F)F)c1)(C(C)C)C(C#N)=C(N)O2 (stereo not shown) [KDG-5]

IC50 (human SHMT2; table of Example 6): 71 nM
IC50 (human SHMT1; table of Example 6): 9.3 nM
Compound: CC(C)c1n[nH]c2c1C(c1cc(C(F)(F)F)cc(C(F)(F)F)c1)(C(C)C)C(C#N)=C(N)O2 (stereo not shown) [KDG-12]
